In patent US20240197674A1, “NOVEL USE OF 3-(4-(BENZYLOXY)PHENYL)HEX-4-INOIC ACID DERIVATIVE” (Hyundai Pharm Co., Ltd., priority 2021, published 2024):
“Also recorded” adds a separate entry of the source.

How the values were obtained:
Assay type in all cases: cell-based
[1] = system: C2C12 cells; assay: Cell viability assay kit after palmitate treatment; conditions: with palmitate in growth medium, 24 hours, versus palmitate only
Experimental: (§1) Sarcopenia is known to be accelerated by diabetes, obesity, or inflammatory responses. Accordingly, it was confirmed whether Compound A can inhibit muscle loss even under the above conditions as follows. Palmitate (PA; P9767, Sigma-Aldrich, USA) was dissolved in ethanol and then mixed with bovine serum albumin (BSA; A7888, Sigma-Aldrich) dissolved in DMEM at a molar ratio of 6:1, followed by conjugation at 60° C. for 1 hour. Cells were treated with the resulting conjugate.
(§2) After mixing Compound A and the palmitate in a growth medium (10% FBS (Cat No. 16000, Invitrogen)-containing DMEM), C2C12 cells were treated with the resulting mixture for 24 hours, and then a Bax/Bcl2 ratio was confirmed by western blotting and cell viability was assessed using a cell viability assay kit (Dozen, EZ-3000). Primary antibodies used herein were the Bax antibody (Santa Cruz, sc-7480) and Bcl2 antibody (Santa Cruz, sc-7382). Bax is a protein inducing apoptosis, and Bcl2 is a protein inhibiting apoptosis by hindering the migration of Bax to mitochondria.
(§3) Since Compound A is known as a G-protein-coupled receptor40 agonist (GPR40 agonist), it was confirmed whether the myogenesis promoting effect (Experimental Example 1) of Compound A is a general effect of GPR40 agonists. Specifically, experiments were conducted in the same manner as in Experimental Examples 1 and 2, except that C2C12 cells were treated with LY2922470 instead of Compound A. As a result of the experiments, it can be seen that, when the C2C12 cells were treated with LY2922470, the expression of myogenic factors MyoG and MyHC was inhibited (FIG. 7), the MyHC positive area decreased, and myotube formation was inhibited (FIG. 8).

[2] = system: C2C12 cells; assay: Expression of myogenic factors MyoG and MyHC by western blotting in C2C12 myoblasts; conditions: differentiation medium (2% horse serum DMEM), 3 days
Experimental: (§4) C2C12 cells, which are myoblasts, were cultured and treated with a mixture of Compound A in a differentiation medium [2% horse serum (Cat No. 16050, Invitrogen, USA)-containing DMEM (Cat No. 11965, Invitrogen)] for 3 days. Afterward, the change in expression of myogenin (myogenic factor 4, MyoG) and a myosin heavy chain (MyHC), which are known as myogenic factors, was confirmed by western blotting. As primary antibodies, a MyoG antibody (Santa Cruz, sc-12732), a MyHC antibody (Santa Cruz, sc-32732), and a beta-actin antibody (Santa Cruz, sc-47778) were used. As a result, it can be confirmed that the higher the treatment concentration of Compound A, the higher the expression of MyoG and MyHC (FIG. 1).
as §3

[3] = system: C2C12 cells; assay: Bax/Bcl2 ratio by western blotting after palmitate treatment; conditions: with palmitate in growth medium, 24 hours, versus palmitate only
Experimental: as §1, §2

[4] = system: C2C12 cells; assay: MyoG and MyHC expression after palmitate treatment and 3 days of differentiation; conditions: with palmitate 24 hours, then 3 days differentiation, versus decrease by palmitate only
Experimental: as §1
(§5) Compound A and the palmitate were mixed in a growth medium (10% FBS-containing DMEM), and C2C12 cells were treated with the resulting mixture. After 24 hours, the medium was exchanged with a fresh […] to induce differentiation for 3 days, and after 3 days, the cells were collected to confirm the expression of MyoG and MyHC, and the changes in MyHC positive area and myotube thickness.

[5] = system: C2C12 cells; assay: MyHC positive area and myotube thickness after palmitate treatment and 3 days of differentiation; conditions: with palmitate 24 hours, then 3 days differentiation, versus decrease by palmitate only
Experimental: as §1, §5

[6] = system: C2C12 cells; assay: Atrogin-1 expression in differentiated C2C12 myotubes treated with palmitate; conditions: C2C12 differentiated 6 days into myotubes, with palmitate in differentiation medium, versus palmitate only
Experimental: as §1
(§6) Atrogin-1 is a type of E3 ubiquitin ligase and a marker associated with muscular atrophy, and it is known that, as its gene expression increases, muscle is broken down. To confirm the change in atrogin-1 expression by Compound A, C2C12 cells were cultured in a differentiation medium for 6 days to induce differentiation into myotubes, and the differentiated cells were treated with a mixture of Compound A and palmitate in a differentiation medium. Afterward, an expression level was confirmed using an atrogin-1 antibody (Abnova, PAB15627), and cell viability was measured.

[7] = system: C2C12 cells; assay: Cell viability of differentiated C2C12 myotubes treated with palmitate; conditions: C2C12 differentiated 6 days into myotubes, with palmitate in differentiation medium, versus palmitate only
Experimental: as §1, §6

[8] = system: C2C12 cells; assay: MyHC immunohistochemistry: MyHC positive area, myotube thickness and myotube formation; conditions: C2C12 myoblasts, differentiation medium, 3 days
Experimental: as §4
In addition, C2C12 cells were treated with Compound A in the same manner as above, and then immunohistochemistry was performed with a MyHC antibody. As a result, it was confirmed that, as the treatment concentration of Compound A increases, the MyHC positive area and myotube thickness increase (FIG. 2).
as §3

[9] = immunohistochemistry with MyHC antibody

Compound	cell viability (apoptosis caused by palmitate) [1]	expression of MyHC [2]	expression of MyoG [2]	Bax/Bcl2 ratio [3]	expression of MyHC [4]	expression of MyoG [4]	MyHC positive area [5]	myotube thickness [5]	atrogin-1 expression [6]	cell viability [7]	MyHC positive area [8, 9]	myotube thickness [8, 9]	myotube formation [8]
CC#C[C@@H](CC(=O)O)c1ccc(OCc2cccc(C3=CCC4(CC3)OCCO4)c2)cc1 [Compound A, (3S)-3-(4-(3-(1,4-dioxaspiro[4,5]des-7-en-8-yl)benzyloxy)phenyl)hex-4-inoic acid]	increased; also recorded: inhibited apoptosis	higher	higher	decreased	reversed	reversed	reversed	reversed	decreased	recovered	increase	increase	
CC#C[C@@H](CC(=O)O)c1ccc(OCc2ccc(CN3CCCc4cccc(OC)c43)s2)cc1 [LY2922470, reference compound]	did not inhibit apoptosis	inhibited	inhibited								decreased		inhibited
CC#C[C@@H](CC(=O)O)c1ccc(OCc2cccc(C3=CCC4(CC3)OCCO4)c2)cc1 [compound of Formula 1, (3S)-3-(4-(3-(1,4-dioxaspiro[4,5]des-7-en-8-yl)benzyloxy)phenyl)hex-4-inoic acid]	reversed	increases	increases	reversed	reversed	reversed	reversed	reversed					promoted
